Results published in patent US20140228427A1, “PHARMACEUTICAL COMPOSITION CONTAINING WOGONIN AS AN ACTIVE INGREDIENT FOR PREVENTING OR TREATING ASTHMA” (KOREA RESEARCH INSTITUTE OF BIOSCIENCE AND BIOTECHNOLOGY, priority 2011, published 2014).

Legend:
[1] = Body weight of ovalbumin-induced asthma mice; type: in vivo, Balb/c mice; settings: OVA asthma induced mice; Wogonin 30 mg/kg PO, dexamethasone 3 mg/kg PO, montelukast 30 mg/kg PO; asthma induced group 19.72±0.53, normal control 21.60±0.25
Description: (§1) To investigate the effect of the Wogonin of the present invention on asthma, 6-week old female Balb/c mice in the weight of about 20 g were used as test animals. After spending one week for adaptation, basic physical examination was performed to select normal ones.
(§2) The test animal was sensitized with 200 μl of phosphate buffer (pH 7.4) containing 2 mg of aluminum hydroxide (A8222, Sigma, St. Louis, Mo.) and 20 μg of ovalbumin (A5503, Sigma, St. Louis, Mo.) by intraperitoneal injection at 2 weeks interval. 1% ovalbumin was inhaled in the mouse for 30 minutes by using an ultrasonic nebulizer from the 28th day to the 30th day after the first intraperitoneal injection of ovalbumin (OVA).
(§3) 24 hours after the final antigen treatment, airway hypersensitivity was measured. 48 hours later, a lethal dose of pentobarbital (Entobar, Hanlim Pharm. Co. Ltd., Seoul, Korea) was administered to the mouse. Body weight was measured and tracheostomy was performed. Bronchoalveolar lavage was performed with 1.2 ml of saline, followed by sampling. The normal control group (NC) was administered with ovalbumin but not inhaled, the asthma induced group (OVA) was administered with ovalbumin and inhaled to induce bronchial asthma, the comparative group 1 (DEXA) was orally administered with dexamethasone (3 mg/kg, PO: D4902, Sigma, St. Louis, Mo.) one hour before inhaling ovalbumin, the comparative group 2 (Monte) was orally administered with montelukast (30 mg/kg, PO) one hour before inhaling ovalbumin, and the experimental group (Wogonin) was orally administered with the Wogonin of Example 1 (30 mg/kg, PO) one hour before inhaling ovalbumin. Each group was composed of 5 white mice.

[2] = tested on: infiltration of inflammatory cells around bronchiolus and blood vessels; experiment: Histopathological test of the lung (H&E, inflammatory index); type: in vivo, Balb/c mice; settings: index scale 0-4; for Inflammatory Index around bronchiolus: OVA group 3.60 ± 0.22; for Inflammatory Index around blood vessels: OVA group 3.80 ± 0.18
Description: as §1, §2, §3
The infiltration of inflammatory cells including eosinophils, neutrophils, and macrophages is observed in the bronchus sensitized with an antigen. To investigate the effect of the Wogonin of the present invention on asthma, the inventors performed histopathological test with the lung without bronchoalveolar lavage.
The lung extracted without bronchoalveolar lavage from each group was fixed with formalin and embedded in paraffin. Then, 4 μm thick permanent tissue sections were prepared, followed by H&E staining. Upon completion of H&E staining, inflammatory index was measured from 5 random regions of each section, and then mean value was calculated.

IL-4 = experiment: Analysis of cytokine mRNA (RT-PCR), IL-4; type: in vivo, Balb/c mice; settings: for Relative Densitometric Value, RDV, IL-4: NC = 100%, OVA group 159.91 ± 14.87
Description: as §1, §2, §3
(§4) To investigate the effect of the Wogonin of the present invention on asthma, asthma related cytokine mRNA was measured.
(§5) RNA was isolated from the lung by using trizol (Invitrogen) in order to measure the expressions of Th2 cytokines such as IL-4, IL-6, and IL-13 in the supernatant of bronchoalveolar lavage fluid taken from each group, followed by reverse transcriptase polymerase chain reaction (quantitative RT-PCR, Promega, Wis.). When the lowest expression was indicated as 1, relative densitometric value (RDV) was produced by that to evaluate the expression inhibition effect.

IL-13 = experiment: Analysis of cytokine mRNA (RT-PCR), IL-13; type: in vivo, Balb/c mice; settings: for Relative Densitometric Value, RDV, IL-13: NC = 100%, OVA group 187.35 ± 7.49
Description: as §1, §2, §3, §4, §5

IL-6 = experiment: Analysis of cytokine mRNA (RT-PCR), IL-6; type: in vivo, Balb/c mice; settings: for Relative Densitometric Value, RDV, IL-6: NC = 100%, OVA group 128.20 ± 6.51
Description: as §1, §2, §3, §4, §5

IgE = experiment: Measurement of IgE in serum and bronchoalveolar lavage fluid by enzyme immunoassay; type: in vivo, Balb/c mice; settings: mean±S.E.; for Total IgE Conc. in bronchoalveolar lavage fluid: OVA group 19.02 ± 2.43; for Total IgE Conc. in Serum: OVA group 23139.51 ± 484.45
Description: as §1, §2, §3
To investigate the effect of the Wogonin of the present invention on asthma, the inventors measured IgE concentration in serum and bronchoalveolar lavage fluid which is related to the severity of asthma by enzyme immunoassay.
Serum and bronchoalveolar lavage fluid taken from each group were loaded in […] plate on which 0.1M NaHCO3 buffer (pH 8.3) containing 20 μg/ml of ovalbumin (OVA) was coated at 4° C. for overnight. Non-specific reaction was blocked by PBS containing 1% bovine serum albumin. Serum sample was diluted at the ratio of 1:400, followed by reaction at room temperature for 2 hours.
After washing the plate well, the sample was reacted with anti-mouse IgE monoclonal antibody diluted at the ratio of 1:300 for 2 hours. HRP-conjugated goat anti-rat IgG polyclonal A was diluted at the ratio of 1:4000, which was added thereto for further reaction at room temperature for 1 hour, followed by washing.
For color development, 3.3′5.5′-tetramethylbenzidine substrate was added, followed by measuring OD650.

[3] = tested on: inflammatory cells (eosinophils and other inflammatory cells) in bronchoalveolar lavage fluid; experiment: Analysis of inflammatory cells in bronchoalveolar lavage fluid; type: in vivo, Balb/c mice; settings: for Cell Number, other cells: OVA group 452.55 ± 93.48
Description: as §1, §2, §3
To investigate the effect of the Wogonin of the present invention on asthma, the present inventors measured the increase or decrease of inflammatory cell number which is believed to be involved in asthma.
As soon as bronchoalveolar lavage fluid was recovered from each group, it was stained with Trypan blue. Then, the number of cells, except dead cells, was counted by hemocytometer. The sample was smeared with Cytospin II, followed by Diff-Quick staining (Sysmex, Switzerland) to calculate the numbers of eosinophils and other inflammatory cells.

reactive oxygen species = experiment: Measurement of reactive oxygen species generation (DCFH-DA fluorescence) in bronchoalveolar lavage fluid; type: in vivo, Balb/c mice; settings: for Reactive oxygen species generation, DCF fluorescence: NC = 100%, OVA group 192.89 ± 27.36; for reduction of reactive oxygen species generation compared with the asthma induced group: vs asthma induced group
Description: as §1, §2, §3
The increase of oxidative stress results in the decrease of reaction to steroids. To investigate the effect of the Wogonin of the present invention on asthma, the present inventors measured the generation of reactive oxygen species which is apparent in asthma like in other inflammatory diseases.
A portion of bronchoalveolar lavage fluid of each group was washed with PBS, to which 10 μM of 2,7-Dichlorofluorescein diacetate (DCFH-DA, 35845, Sigma, St. Louis, Mo.), one of the fluorescent reagents, was added. The mixture stood at room temperature for 10 minutes in the darkness, and then measured fluorescence with a spectrofluorometer (Ex=480 nm Em=522 nm).

[4] = tested on: airway hypersensitivity in ovalbumin-sensitized Balb/c mice; experiment: Measurement of airway hypersensitivity (Penh, methacholine inhalation, one chamber plethysmography); type: in vivo; settings: for Penh value: mean±S.E.
Description: as §1, §2, §3
The effect of the Wogonin of the present invention on asthma related airway hypersensitivity was evaluated by measuring enhanced pause (Penh) which presents the grade of airway obstruction calculated by measuring airway resistance using one chamber plethysmorgraphy (All Medicus, Seoul). For the measurement of Penh, base value was measured under normal breathing condition and then PBS was inhaled by using an ultrasonic nebulizer for 3 minutes, followed by measuring for 3 minutes. Then, methacholine (A2251, Sigma, St. Louis, Mo.), the […], which is generally used to diagnose bronchial asthma, was inhaled to the animal with raising the concentration gradually (12, 25, and 50 mg/ml), followed by measuring Penh. The ratio of Penh increased over the concentrations of methacholine inhaled was presented as % and baseline Penh (saline challenge) was presented as 100%.

[5] = tested on: airway hypersensitivity in ovalbumin-sensitized Balb/c mice; experiment: as above; type: in vivo; settings: methacholine 12.5 mg/ml; OVA group 2.2917 ± 0.3070; mean±S.E.
[6] = methacholine 0 mg/ml, OVA group 0.6299 ± 0.0617
[7] = methacholine 25 mg/ml, OVA group 6.8642 ± 0.8313
[8] = methacholine 50 mg/ml, OVA group 9.1854 ± 1.6230

Row | SMILES | average body weight [1] | Inflammatory Index around bronchiolus [2] | Inflammatory Index around blood vessels [2] | Relative Densitometric Value, RDV, IL-4 (IL-4) | Relative Densitometric Value, RDV, IL-13 (IL-13) | Relative Densitometric Value, RDV, IL-6 (IL-6) | Total IgE Conc. in bronchoalveolar lavage fluid (IgE) | Total IgE Conc. in Serum (IgE) | Cell Number, eosinophils ([3]; OVA group 71.75 ± 4.63) | Cell Number, other cells [3] | Cell Number, total cells ([3]; OVA group 524.30 ± 43.22) | Reactive oxygen species generation, DCF fluorescence (reactive oxygen species) | reduction of reactive oxygen species generation compared with the asthma induced group (reactive oxygen species) | Penh value [4, 6] | Penh value [4, 7] | Penh value [4, 8] | Penh value [5] | other results
1 | C[C@@H]1C[C@H]2[C@@H]3CCC4=CC(=O)C=C[C@]4(C)[C@@]3(F)[C@@H](O)C[C@]2(C)[C@@]1(O)C(=O)CO [DEXA, dexamethasone] | 21.04 ± 0.35 g | 1.75±0.19 | 1.50 ± 0.22 | 139.60 ± 13.34% | 176.55 ± 16.13% | 121.37 ± 6.78% | 10.15 ± 1.38 ng/mL | 15991.36 ± 1194.92 ng/mL | 8.24 ± 1.31 ×10^3 cell/mouse | 81.00 ± 10.40 ×10^3 cell/mouse | 89.24 ± 6.98 ×10^3 cell/mouse | 116.55 ± 9.28% | 39.58% | 0.6486 ± 0.1526 | 1.9963 ± 0.1577 | 2.7864 ± 0.4293 | 1.6750 ± 0.0820 | Inflammatory Index around blood vessels ([2]; listed as comparative control group 1): 1.50±0.22; Cell Number, eosinophils ([3]; OVA group 71.75 ± 4.63, listed as dexamethasone): 8.24±1.31 ×10^3 cell/mouse; Cell Number, total cells ([3]; OVA group 524.30 ± 43.22, listed as dexamethasone): 89.24±6.98 ×10^3 cell/mouse
2 | COc1c(O)cc(O)c2c(=O)cc(-c3ccccc3)oc12 [Wogonin] | 21.92 ± 0.43 g | 1.00±0.28 | 1.40±0.22 | 118.11 ± 29.80% | 143.68 ± 14.08% | 106.87 ± 10.47% | 12.10 ± 1.87 ng/mL | 19418.52 ± 1332.101 ng/mL | 32.24±8.84 ×10^3 cell/mouse | 140.28 ± 26.24 ×10^3 cell/mouse | 172.52±29.29 ×10^3 cell/mouse | 60.91 ± 4.14% | 68.42% | 0.4261 ± 0.0069 | 2.0166 ± 0.2248 | 2.6055 ± 0.2280 | 1.7059 ± 0.3028 | suppression of IL-4 expression compared with the asthma induced group (IL-4; lung, vs asthma induced group): 26.14%; suppression of IL-13 expression compared with the asthma induced group (IL-13; lung, vs asthma induced group): 23.30%; suppression of IL-6 expression compared with the asthma induced group (IL-6; lung, vs asthma induced group): 16.64%; Penh value over the increase of methacholine concentration ([4]; range over methacholine concentrations): 1.7059-2.6055
3 | CC(C)(O)c1ccccc1CC[C@@H](SCC1(CC(=O)O)CC1)c1cccc(/C=C/c2ccc3ccc(Cl)cc3n2)c1 [Monte, montelukast] | 21.08 ± 0.36 g | 2.25±0.22 | 2.50 ± 0.25 | 138.86 ± 19.52% | 157.67 ± 16.60% | 112.39 ± 7.16% | 10.15 ± 1.58 ng/mL | 17176.54 ± 2542.98 ng/mL | 27.88 ± 2.80 ×10^3 cell/mouse | 130.12 ± 9.22 ×10^3 cell/mouse | 167.68 ± 8.80 ×10^3 cell/mouse | 104.48 ± 9.80% | 45.84% | 0.4525 ± 0.0313 | 2.1006 ± 0.4758 | 2.3576 ± 0.1741 | 1.5249 ± 0.2432 | Inflammatory Index around blood vessels ([2]; listed as comparative control group 2): 0.50±0.25; Cell Number, eosinophils ([3]; OVA group 71.75 ± 4.63, listed as montelukast): 27.88±2.80 ×10^3 cell/mouse; Cell Number, total cells ([3]; OVA group 524.30 ± 43.22, listed as montelukast): 167.68±8.80 ×10^3 cell/mouse
